“Also recorded” adds a separate entry of the source.
Key:
rats with spasticity [1] = assay: Peripheral muscle resistance during computer-controlled ankle flexion in rats with ischemia-induced spasticity; format: in vivo
Method: (§1) After ischemia, animals with developed paraplegia were selected and maintained for 3-12 months. To identify the presence of spasticity, the following tests were performed at 7-14 day intervals as described below: 1) tonic EMG activity recorded from gastrocnemius muscle (i.e., stimulus-independent changes in EMG activity); 2) peripheral muscle resistance measurement during a computer controlled ankle-flexion and simultaneous EMG recording from gastrocnemius muscle (i.e., stimulus-dependent changes in EMG activity); and 3) motor evoked potential recording.
Peripheral muscle resistance was measured using a previously described system (O. Kakinohana, Neuroscience 1:141(3) (2006)). Briefly, animals are placed into a plastic restrainer and one hind paw attached by a tape to a metal plate driven by a computer-controlled stepping motor. The metal plate is equipped with a digital force transducer. The resistance of the ankle to flexion was measured during motor-driven ankle flexion and data collected directly to the computer.

rats with spasticity [2] = assay: Electromyographic (EMG) recording from gastrocnemius muscle during ankle flexion in rats with ischemia-induced spasticity; format: in vivo; details: 100 mg/kg i.p., FIG. 1
Method: as §1
To record EMGs, two silver needle (22 G) electrodes (distance between recording electrodes=1 cm) were placed percutaneously into the gastrocnemius muscle. Electrodes were connected to a preamplifier (HS4 fiber optic BIOAMP HEADSTAGE, WPI) and amplified using DB4 fiber optic amplifier (WPI). Animals were then allowed to acclimate for 10 min and the EMG responses recorded before, during and after ankle flexion. Recorded signal was digitized by the Instrunet Model 100 Network A/D, acquired by the Instrunet Model 200 PCI controller (Omega, USA) and stored in PC for analysis.

N[C@@H](C(=O)N1CCCC1)[C@@H](O)c1ccncc1 [Compound A]
spasticity associated with transient ischemia of the spinal cord (rats with spasticity [1]; 100 mg/kg): inhibits the spasticity | muscle resistance during the period of ankle flexion (rats with spasticity [1]; 100 mg/kg of Compound A, spasticity after transient spinal cord ischemia): decrease in muscle resistance | EMG response / EMG activity (rats with spasticity [2]): corresponding changes in EMG activity; also recorded: inhibits EMG response

Source: patent publication US8217059B2, “Compositions and methods for treating spasticity” (Allergan, Inc., priority 2009, dated 2012)
